Laboratory results published in article PMC7914367, “Dual-ligand supramolecular nanofibers inspired by the renin-angiotensin system for the targeting and synergistic therapy of myocardial infarction” (Theranostics, 2021).
Each block holds one molecule with its values, some of them ahead of it. Square brackets hold non-standard residues; d marks the D form. Ends that are not written are not given here. Peptide text beside a SMILES is read from it. * marks the point of attachment. NBD = O=[N+]([O-])c1ccc(*)c2nonc12; βAla = NCCC(=O)O

Legend:
[1] = molecular target: T1, recombinant human MasR (rhMasR) (Homo sapiens, UniProt P04201); experiment: Surface plasmon resonance imaging (SPRi) binding; details: rhMasR immobilized on CM5 chip, analytes 0.001-10 μM in PBS
T1 construct: purchased Abnova H00004142-G01
T1 sequence (P04201 1-325): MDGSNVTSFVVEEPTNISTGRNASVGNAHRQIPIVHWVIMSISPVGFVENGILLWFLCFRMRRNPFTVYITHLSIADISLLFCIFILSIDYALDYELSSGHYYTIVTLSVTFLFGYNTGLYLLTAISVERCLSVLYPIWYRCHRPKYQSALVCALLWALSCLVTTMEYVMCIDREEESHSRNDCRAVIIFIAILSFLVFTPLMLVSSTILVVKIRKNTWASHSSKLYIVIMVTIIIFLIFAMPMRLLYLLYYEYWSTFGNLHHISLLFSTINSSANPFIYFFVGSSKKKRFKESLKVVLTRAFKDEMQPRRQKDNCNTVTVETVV

[2] = TEM of nanofibers (diameter); type: physicochemical; details: SAA1-7 hydrogel, 1.0 wt% in PBS pH 7.4, heat-cooling
Description: To construct the dual-ligand supramolecular nanofibers, we designed and synthesized a peptide molecule NBD-^DF^DF^DY^DE^DEG-DRVYIHP (SAA1-7, Figure 1A & Figure S1) as a hydrogelator. […] SAA1-7 could self-assemble into a transparent hydrogel in PBS (pH 7.4) at a concentration of 1.0 wt% via a simple heat-cooling process, in which we observed uniform nanofibers with diameters of 7.6 ± 1.8 nm using transmission electron microscopy (TEM) (Figure S2). The drug loading efficiency and the stability of nanocarriers are attributed to the affinity between amphiphilic peptides and hydrophobic molecules. […] We measured the encapsulation efficiency (EE) and drug loading (DL) of TDCNfs. […]
Subsequently, we studied the co-assembly behaviors and the underlying mechanism of TDCNfs. […] We monitored and compared the nanostructures in the process of hydrogelation at different time points by TEM. […]
(§1) DL and EE were calculated using the following equation. […]
dissolved in PBS (5 mL) and th e pH was adjusted to 7.4. […] Next, 500 μL of the sample was removed at each time point and the rel ease of Tel was analyzed, while the remained SAA1-7 in the sample was analyzed using LC-MS […]
(§2) The CMC values were determined by dynamic light scattering (DLS) and the light scattering intensity was recorded for each concentration. […]

AT1R = molecular target: T2, AT1R (Rattus norvegicus, UniProt P25095); experiment: Fluorescent co-localization with AT1R in NRCMs; type: cell-based; details: OGD-conditioned NRCMs, 50 μM, 2 h, microscopy
T2 construct: NRCMs under OGD conditions expressed high levels of AT1R (red fluorescence); endogenous in cells; host or cells: primary neonatal rat cardiomyocytes (NRCMs) from Sprague-Dawley rats, normoxia or OGD
T2 sequence (P25095 1-359): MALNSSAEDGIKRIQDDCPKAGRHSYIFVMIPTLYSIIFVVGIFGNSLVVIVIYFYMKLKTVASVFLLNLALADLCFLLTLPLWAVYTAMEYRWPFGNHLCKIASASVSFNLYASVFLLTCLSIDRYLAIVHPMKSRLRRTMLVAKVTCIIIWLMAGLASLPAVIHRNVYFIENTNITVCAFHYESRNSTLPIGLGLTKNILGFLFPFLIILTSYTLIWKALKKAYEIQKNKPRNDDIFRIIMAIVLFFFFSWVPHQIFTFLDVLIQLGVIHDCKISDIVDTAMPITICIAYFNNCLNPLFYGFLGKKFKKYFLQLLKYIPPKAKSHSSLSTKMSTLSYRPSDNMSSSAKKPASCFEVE
Protocol: Next, the cells were blocked by incubating with goat serum for 30 min and incubated with primary antibodies overnight at 4 °C. The primary antibodies used here included anti-AT1R (1:200 dilution), anti-cTNT (1:500 dilution), anti-P65 (1:800 dilution), and anti‐α-SMA (1:400 dilution). The cells were incubated with FITC-labeled Goat Anti-Rabbit IgG (1:200 dilution) or Cy3-labeled Goat Anti-Mouse IgG (1:200 dilution) for 2 h at room temperature. The cells were counterstained with DAPI and imaged using a fluorescence microscope (Leica Dmi8, Germany).
(50 μM), SAA1-7+Tel (50 μM) and NBDAng1-7+Tel (50 μM) for further 2 h. PBS was then used to wash cells for three times and 4% paraformaldehyde was added to fix cells for 20 min at room temperature. After being blocked with goat serum for 30 min, rabbit anti-AT1R primary antibody (1:200 dilution) was added to incubat e wit h NRCMs overnight at 4 ℃. After being washed with PBS for three times, Cy3-labeled Goat Anti-Rabbit IgG (1:200 solut ion) was added and incubated with cells for 2 h at room temperature. Cells were then stained with DAPI. The fluorescence i mages were obtained by the fluorescence microscope (λexc =532 nm for AT1R, λexc = 488 nm for NBD, λexc = 405 nm for DAPI).

[3] = Critical micelle concentration by dynamic light scattering; type: physicochemical; details: gradient concentrations in MilliQ water
Protocol: The details are given in Supporting Information.
S1.3 Drug Loading and Encapsulation Efficiency
Tel (dissolved in DMSO) was mixed with SAA1-7 (dissolved in PBS) (pH 7.4, 10 mg/mL) at molar ratios of 15%, 30%, 50%, and 70% (n = 3). After preparation, the mixtures were analy zed using LC-MS (LCMS-20AD, Shimadzu) after lyo philization.
as §1
dissolved in PBS (5 mL) and th e pH was adjusted to 7.4. Proteinase K was added at a concentration of 0.138 mg/mL and the reaction m ixtures were incubated at 37 °C for 24 h. Next, 500 μL of the sample was removed at each time point and the rel ease of Tel was analyzed, while the remained SAA1-7 in the sample was analyzed using LC-MS […]
S1.4 Transmission electron microscopy
The SAA1-7 with 50% molar ratio of Tel was incubated at 40 ℃ for 0 min, 30 min, 60 min, and 120 min, respectively. TEM samples in different time points were prepared. […]
were prepared. The sample preparation procedures : 10 µL samples of each were placed on a carbon-coated copper grid and in cubated for 30 seconds to allow the peptide nanostructures to adhere to the substrate, then rinsed twice with ultrapure water. […]
as §2

NRCMs = experiment: TUNEL staining of OGD NRCMs; type: cell-based, rat; details: 10 μM, 2-3 h, OGD group 26.70%, n = 3
MI mouse model [4] = experiment: In vivo mechanism: caspase-3 IHC, α-SMA immunofluorescence, type I collagen, TGF-β1, serum cytokines; parameters: species or system C57BL/6 mice; details: MI mice, 4 weeks post-treatment, immunofluorescence, n = 5
Protocol: Frozen sections were prepared in vivo, as described previously. For drugs distribution, near-infrared laser imager (GE Amersham Typhoon, Sweden) was used to capture full cross section of hearts. For co-localization experiments, the mice hearts were dissected 24 h post-injection of drugs. Anti-AT1R primary antibody (1:200 dilution) was used as the primary antibody. For fibrosis investigation, the frozen sections were incubated with primary antibodies against α-SMA (1:400 dilution). The staining signals were visualized using FITC-labeled Goat Anti-Rabbit IgG (1:200 dilution) or Cy3-labeled Goat Anti-Rabbit IgG (1:200 dilution). The sections were counterstained with DAPI and examined under a laser confocal scanning microscope (Leica TCS SP8, Germany).
The heart tissues were fixed in 4% paraformaldehyde, dehydrated in ethanol, cleared in xylene, and embedded in paraffin. The samples were then cut into 6 μm sections on a microtome and deparaffinized. The sections were blocked by incubating with 1% BSA at room temperature for 30 min and then incubated overnight with anti-cleaved caspase-3 (1:700 dilution), anti-AT1R (1:100 dilution), anti-Collagen I (1:200 dilution) at 4 °C. Next, the sections were washed and incubated with secondary antibodies (1:500 dilution) at room temperature. The tissue sections were incubated with diaminobenzidine and counterstained with hematoxylin, dehydrated, and mounted before viewing under a microscope.
The serum and CM were collected at the indicated time points from the different groups of mice. The levels of TNF-α, IL-6, ALT, Cre, and TGF-β1 were measured using ELISA kits according to the manufacturer's protocol. The absorbance was measured at 450 nm using a microplate reader.

MI mouse model [5] = experiment: Masson's trichrome staining, infarct size; type: in vivo, C57BL/6 mice; details: MI mice, 4 weeks, collagen area/LV area, MI group 36.60%, vehicle 1219.84 μg/kg, n = 5
Protocol: Adult male C57BL/6 mice (20-30 g, 8-10 week) were purchased from the laboratory animal center of Southern Medical University, China. The protocols were approved according to the Zhujiang Hospital of Southern Medical University animal care and use committee guidelines, which conform to the guide for the care and use of laboratory animals published by the US National Institutes of Health (8th edition, 2011). […] Next, 100 µL of different drugs were administered intravenously through tail vein injection every 2 days for 3 weeks, while the mice in the Sham and MI groups were treated with an equal volume of PBS.
The mice were sacrificed at 4 weeks after the induction of MI, and hearts and major organs were harvested and fixed in 4% paraformaldehyde overnight and embedded in paraffin. The hearts were sectioned to 5 µm along the short axis transversely across the infarct zone. The major organs were sectioned to 5 µm along the short axis. Following deparaffinization and dehydration, the samples underwent H&E and Masson's trichrome staining. The sections were observed under a microscope to evaluate the therapeutic effect and safety of the drugs. The collagen and LV areas were measured using the Image-Pro Plus software (version 6.0; Media Cybernetics, Silver Spring, MD, USA). Infarct size (%) was calculated as the ratio of the collagen area to the LV area.

[6] = molecular target: T3, recombinant human MasR (Recombinant Human MAS1 protein) (human) (UniProt P04201); experiment: SPR; SPR imaging (SPRi, PlexArray HT); rhMasR immobilised on a CM5 sensor chip; Ang1-7, SAA1-7 and TDCNfs diluted in PBS at 0.001 to 10 μM
T3 sequence (P04201 whole entry, looked up): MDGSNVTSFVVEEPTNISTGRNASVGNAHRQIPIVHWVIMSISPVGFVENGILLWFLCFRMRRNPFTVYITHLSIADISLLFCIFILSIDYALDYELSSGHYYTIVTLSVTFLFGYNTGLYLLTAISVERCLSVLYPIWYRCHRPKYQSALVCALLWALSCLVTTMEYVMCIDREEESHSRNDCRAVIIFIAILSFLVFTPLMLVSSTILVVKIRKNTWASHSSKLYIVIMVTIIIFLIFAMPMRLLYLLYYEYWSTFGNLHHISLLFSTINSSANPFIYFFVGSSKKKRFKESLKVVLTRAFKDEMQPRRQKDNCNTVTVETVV

Molecule: CC[C@H](C)[C@H](NC(=O)[C@H](Cc1ccc(O)cc1)NC(=O)[C@@H](NC(=O)[C@H](CCCNC(=N)N)NC(=O)[C@@H](N)CC(=O)O)C(C)C)C(=O)N[C@@H](Cc1c[nH]cn1)C(=O)N1CCC[C@H]1C(=O)O [Ang1-7, DRVYIHP]
Kd [1]: 10.3 nM

Molecule: CC[C@H](C)[C@H](NC(=O)[C@H](Cc1ccc(O)cc1)NC(=O)[C@@H](NC(=O)[C@H](CCCNC(=N)N)NC(=O)[C@H](CC(=O)O)NC(=O)CNC(=O)[C@@H](CCC(=O)O)NC(=O)[C@@H](CCC(=O)O)NC(=O)[C@@H](Cc1ccc(O)cc1)NC(=O)[C@@H](Cc1ccccc1)NC(=O)[C@@H](Cc1ccccc1)NC(=O)CCNc1ccc([N+](=O)[O-])c2nonc12)C(C)C)C(=O)N[C@@H](Cc1c[nH]cn1)C(=O)N1CCC[C@H]1C(=O)O [SAA1-7, NBD-^DF^DF^DY^DE^DEG-DRVYIHP] ({NBD-βAla}-[dF][dF][dY][dE][dE]GDRVYIHP-OH)
nanofiber diameter (TEM) [2]: 7.6 ± 1.8 nm
co-localization with AT1R (AT1R): slightly overlapped signal
critical micelle concentration (CMC) [3]: 21.95 µM
Kd [1]: 12.6 nM

Molecule: NBD-DFDFDYDEDEG-YRVIPHD [vehicle]
TUNEL-positive NRCMs (NRCMs): 23.5%
α-SMA expression in the non-infarcted area (MI mouse model [4]): inhibited to a certain extent
infarct size (MI mouse model [5]): 32.92%

Molecule: NBDAng1-7: Ang1-7 endowed with fluorescence by NBD labeling
co-localization with AT1R (AT1R): slightly overlapped signal

More lines, now with the values ahead:

Kd [6]: 10.3 nM
binding value (RU) [6]: 65.1 RU
Molecule: DRVYIHP [angiotensin 1-7]

Kd [6]: 16.5 nM
binding value (RU) [6]: 58.2 RU
Molecule: {NBD}-[dF][dF][dY][dE][dE]GDRVYIHP (also: co-assembly nanofibers doped with telmisartan) [telmisartan-doped co-assembly nanofibers]

Kd [6]: 12.6 nM
binding value (RU) [6]: 62.3 RU
Molecule: {NBD}-[dF][dF][dY][dE][dE]GDRVYIHP [self-assembly angiotensin 1-7 (NBD-DF-DF-DY-DE-DE-G-DRVYIHP)]
